According to patent publication EP0043274A2, “Antithrombotic treatment” (priority 1980, dated 1982):

Experiments:
[1] = molecular target: T1, PROTHROMBIN (Homo sapiens, UniProt P00734); experiment: Coagulation factor assay (Biggs): prothrombin (Factor II); format: biochemical; conditions: for PROTHROMBIN (%): U.S.P. grade, control 87
T1 construct: from tissue; host or cells: human plasma
Description: (§1) The effect of U.S.P. grade sodium bisulfite on blood coagulation factors is evaluated by standard procedures (Biggs) and the results are shown in Table III below.
(§2) References for PT, PTT, and assays of all the coagulation factors can be found in a standard textbook, entitled "Human Blood Coagulation, Haemostasis and Thrombosis", edited by Rosemary Biggs, published by Blackwell Scientific Publications, Oxford, England (2nd edition), pages 670-705, 1976.

[2] = system: blood; experiment: Storage of blood samples with added sodium bisulfite solution; design: species or system human; conditions: about 4 cc blood + about 10 drops of 10 weight percent solution; about 2 1/2 years at ambient temperatures
Description: Samples of about 4 cc each of blood were prepared. To each of these was added about 10 drops of a solution 10 weight percent and sodium bisulfite in distilled water. Each sample was then sealed into a glass vial.

[3] = molecular target: T2, F VIII (Homo sapiens, UniProt P00451); experiment: Coagulation factor assay (Biggs): Factor VIII; format: biochemical; conditions: for F VIII (%): U.S.P. grade, control 57
T2 construct: from tissue; host or cells: human plasma
Description: as §1, §2

T2 sequence (P00451 20-2351): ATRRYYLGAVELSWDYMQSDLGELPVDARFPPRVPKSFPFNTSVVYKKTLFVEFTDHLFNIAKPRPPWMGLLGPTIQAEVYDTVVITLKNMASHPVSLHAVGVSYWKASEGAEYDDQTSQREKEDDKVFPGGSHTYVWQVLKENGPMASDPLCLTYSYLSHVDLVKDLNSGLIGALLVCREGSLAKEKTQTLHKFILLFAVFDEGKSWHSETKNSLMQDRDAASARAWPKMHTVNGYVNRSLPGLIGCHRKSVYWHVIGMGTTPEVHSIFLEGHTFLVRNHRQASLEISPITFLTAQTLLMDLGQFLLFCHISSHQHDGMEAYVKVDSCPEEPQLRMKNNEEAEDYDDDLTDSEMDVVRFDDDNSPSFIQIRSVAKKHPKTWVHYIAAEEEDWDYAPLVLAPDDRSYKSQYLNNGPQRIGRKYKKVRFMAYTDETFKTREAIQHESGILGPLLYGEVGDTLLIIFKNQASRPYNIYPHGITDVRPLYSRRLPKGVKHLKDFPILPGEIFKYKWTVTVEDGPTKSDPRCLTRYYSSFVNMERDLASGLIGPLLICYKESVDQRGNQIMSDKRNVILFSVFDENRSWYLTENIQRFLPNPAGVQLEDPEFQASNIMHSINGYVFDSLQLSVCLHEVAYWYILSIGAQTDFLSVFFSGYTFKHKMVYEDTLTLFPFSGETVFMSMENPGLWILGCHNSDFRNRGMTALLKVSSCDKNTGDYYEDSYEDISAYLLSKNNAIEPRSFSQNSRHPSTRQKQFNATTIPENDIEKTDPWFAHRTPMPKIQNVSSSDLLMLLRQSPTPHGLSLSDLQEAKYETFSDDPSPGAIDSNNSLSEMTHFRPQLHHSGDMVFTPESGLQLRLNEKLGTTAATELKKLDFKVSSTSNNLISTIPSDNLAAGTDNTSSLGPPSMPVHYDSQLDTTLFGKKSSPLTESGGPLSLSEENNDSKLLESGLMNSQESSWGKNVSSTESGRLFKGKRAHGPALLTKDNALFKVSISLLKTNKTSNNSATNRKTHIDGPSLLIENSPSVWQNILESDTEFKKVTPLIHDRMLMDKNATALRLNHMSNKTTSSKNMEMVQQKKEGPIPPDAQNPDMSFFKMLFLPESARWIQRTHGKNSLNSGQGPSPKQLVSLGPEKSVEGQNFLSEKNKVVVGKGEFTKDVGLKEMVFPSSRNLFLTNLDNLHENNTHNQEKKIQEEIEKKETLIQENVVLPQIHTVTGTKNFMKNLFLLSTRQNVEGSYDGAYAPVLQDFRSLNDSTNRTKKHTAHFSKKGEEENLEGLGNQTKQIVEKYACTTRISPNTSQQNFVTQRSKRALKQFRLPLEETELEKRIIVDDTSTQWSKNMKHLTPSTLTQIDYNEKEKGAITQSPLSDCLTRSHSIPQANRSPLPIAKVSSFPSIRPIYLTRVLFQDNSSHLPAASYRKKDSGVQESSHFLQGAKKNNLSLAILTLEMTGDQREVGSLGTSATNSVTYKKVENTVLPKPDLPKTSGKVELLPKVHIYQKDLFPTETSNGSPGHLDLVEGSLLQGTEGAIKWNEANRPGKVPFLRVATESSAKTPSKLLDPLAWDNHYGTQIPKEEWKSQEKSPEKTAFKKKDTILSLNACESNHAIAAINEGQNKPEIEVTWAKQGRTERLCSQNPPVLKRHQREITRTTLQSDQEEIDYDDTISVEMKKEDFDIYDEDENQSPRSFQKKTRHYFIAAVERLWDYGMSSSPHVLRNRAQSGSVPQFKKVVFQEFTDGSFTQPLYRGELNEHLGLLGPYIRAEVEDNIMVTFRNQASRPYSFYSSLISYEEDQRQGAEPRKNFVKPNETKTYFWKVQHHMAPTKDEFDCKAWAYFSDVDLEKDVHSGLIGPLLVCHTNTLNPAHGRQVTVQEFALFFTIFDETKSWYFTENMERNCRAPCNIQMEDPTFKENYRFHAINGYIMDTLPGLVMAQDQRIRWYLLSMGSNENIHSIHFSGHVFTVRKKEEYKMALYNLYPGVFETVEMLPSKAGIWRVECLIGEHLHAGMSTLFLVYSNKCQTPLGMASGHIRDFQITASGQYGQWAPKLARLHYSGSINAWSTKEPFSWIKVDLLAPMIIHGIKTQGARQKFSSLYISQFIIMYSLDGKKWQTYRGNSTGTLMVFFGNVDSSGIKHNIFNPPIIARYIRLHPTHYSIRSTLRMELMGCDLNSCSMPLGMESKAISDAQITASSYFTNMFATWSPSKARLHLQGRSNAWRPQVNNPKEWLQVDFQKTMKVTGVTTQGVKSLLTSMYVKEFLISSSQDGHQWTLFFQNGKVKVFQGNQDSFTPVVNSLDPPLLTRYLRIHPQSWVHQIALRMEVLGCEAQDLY

Sodium bisulfite was tested, and the “effect on Factor II” value [1] was “mildly affected”, the “PROTHROMBIN (%)” value ([1]; 0.01 mg/ml) was 79% and the “PROTHROMBIN (%)” value ([1]; 0.05 mg/ml) was 80%. The “PROTHROMBIN (%)” value ([1]; 0.1 mg/ml) was 72%, the “PROTHROMBIN (%)” value ([1]; 0.5 mg/ml) was 40% and the “PROTHROMBIN (%)” value ([1]; 1.0 mg/ml) was 26%. The “PROTHROMBIN (%)” value ([1]; 5.0 mg/ml) was 5%, the “coagulation of stored blood samples” value [2] was “have not coagulated” and the “effect on Factor VIII” value [3] was “mildly affected”. For the same substance, the “F VIII (%)” value ([3]; 0.01 mg/ml) was 62%, the “F VIII (%)” value ([3]; 0.05 mg/ml) was 68% and the “F VIII (%)” value ([3]; 0.1 mg/ml) was 55%. For the same substance, the “F VIII (%)” value ([3]; 0.5 mg/ml) was 58%, the “F VIII (%)” value ([3]; 1.0 mg/ml) was 29% and the “F VIII (%)” value ([3]; 5.0 mg/ml) was 11%.
